{
  "source": "patent US6461997B1",
  "about": "“Triazole sulfones having herbicidal activity” (Monsanto Technology LLC, priority 1999, dated 2002)",
  "key": {"[1]": {"system": "SORHA (johnsongrass (seedling))", "assay": "Pre-plant incorporated (PPI) herbicidal activity, warm season", "format": "in vivo, Sorghum halepense", "settings": "for PPI activity GR80, SORHA: pre-plant incorporated, lowest tested rate with 80% or greater inhibition, about 14 days", "description": "(§1) In another set of tests, the pre-plant incorporated (PPI) activity of compounds of this invention was evaluated on the same species as for the pre-emergence tests described above. In the PPI tests the following procedure, designed to simulate PPI application, was used.\n(§2) A pre-prepared topsoil mixture (described above) was placed in a pot and compacted to a depth of 1.0 to 1.25 cm from the top of the pot. Seeds of each of several monocotyledonous and dicotyledonous annual plant species were placed on top of the soil. A sufficient quantity of soil to cover the seeds and level fill the pot was weighed into an open container. A known amount of the test compound was dissolved or suspended in an organic solvent and applied by spraying to this cover soil. The cover soil was thoroughly mixed to distribute the test compound throughout the cover soil, and was then applied as a cover layer over the seeds. Untreated soil was used as a cover layer for control pots. After treatment the plants were placed in a greenhouse where they received 0.64 cm of overhead irrigation. All subsequent watering consisted of a light overhead mist and/or subirrigation as needed for germination and growth. Tables 9 and 10 below relate to warm season plant species which were placed after pre-emergence treatment in a greenhouse with a 30/21° C. day/night temperature regime. Tables 11 and 12 below relates to cool season plant species placed after pre-emergence treatment in a greenhouse or growth chamber with an 18/13° C. day/night temperature regime. Only the compounds of Examples 1, 6, 8, 11, 13 and 15-20 were included in PPI tests.\n(§3) Approximately 14 days after planting and treating, the plants were observed and herbicidal efficacy recorded as percent inhibition by comparison with untreated plants."}, "ALOMY (blackgrass)": {"system": "ALOMY (blackgrass)", "assay": "Pre-emergence herbicidal activity, cool season", "format": "in vivo, Alopecurus myosuroides", "settings": "GR80 = lowest tested rate (300, 100, 30, 10 g/ha) with 80% or greater inhibition; approx. 14 days after treating; 18/13° C.", "procedure,_shortened": "(§4)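 GR80 values derive from percent inhibition relative to untreated plants, read roughly 14 days after sowing and pre-emergence soil-surface treatment (compound in 50:50 acetone/water; rates typically 10, 30, 100, 300 g/ha). Warm-season weeds grew at 30/21° C day/night, cool-season ones at 18/13° C; an asterisk marks activity without reaching 80% at the highest rate.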"}, "soybean (GLYMX)": {"system": "soybean (GLYMX)", "assay": "Selectivity test, PPI, warm season crop", "format": "in vivo, Glycine max", "settings": "PPI application", "description": "as §2, §3\nAdditional pre-emergence and PPI tests were conducted by the procedures described above, on warm and cool season weed species in the presence of crop species, to assess herbicidal selectivity. Crop species included in warm season tests were corn (Zea mays, ZEAMX), rice (Oryza sativa, ORYSA) and soybean (Glycine max, GLYMX). Crop species included in cool season tests were wheat (Triticum aestivum, TRZAW), barley (Hordeunm vulgare, HORVX) and oilseed rape (Brassica napus, BRSNS).\nTables 15 and 16 relate to pre-emergence and PPI tests respectively on warm season species. Table 17 relates to pre-emergence tests on cool season species."}, "[2]": {"system": "VERPE (creeping speedwell)", "assay": "Pre-emergence herbicidal activity, cool season", "format": "in vivo, Veronica persicaria", "settings": "lowest tested rate with 80% or greater inhibition; rates 300, 100, 30, 10 g/ha; about 14 days", "procedure,_shortened": "as §4"}, "LOLMG (annual ryegrass)": {"system": "LOLMG (annual ryegrass)", "assay": "Pre-plant incorporated (PPI) herbicidal activity, cool season", "format": "in vivo, Lolium multiflorum", "settings": "for PPI activity GR80, LOLMG: pre-plant incorporated, lowest tested rate with 80% or greater inhibition, about 14 days", "description": "as §1, §2, §3"}, "DIGSA (large crabgrass)": {"system": "DIGSA (large crabgrass)", "assay": "Pre-plant incorporated (PPI) herbicidal activity, warm season", "format": "in vivo, Digitaria sanguinalis", "settings": "for PPI activity GR80, DIGSA: pre-plant incorporated, lowest tested rate with 80% or greater inhibition, about 14 days", "description": "as §1, §2, §3"}},
  "data": [
    {"smiles": "C=C(Br)CC(F)(F)S(=O)(=O)c1ncn(C(=O)N(CC)CC)n1", "note": "[Example 19]", "values": [
      {"measurement": "inhibition at 10 g/ha", "setting": "[1]; Sorghum halepense, PPI application, 10 g/ha, read-out: Percent inhibition SORHA", "value": 60, "unit": "%"},
      {"measurement": "inhibition at 30 g/ha", "setting": "[1]; Sorghum halepense, PPI application, 30 g/ha, read-out: Percent inhibition SORHA", "value": 80, "unit": "%"},
      {"measurement": "inhibition at 100 g/ha", "setting": "[1]; Sorghum halepense, PPI application, 100 g/ha, read-out: Percent inhibition SORHA", "value": 100, "unit": "%"},
      {"measurement": "inhibition at 300 g/ha", "setting": "[1]; Sorghum halepense, PPI application, 300 g/ha, read-out: Percent inhibition SORHA", "value": 100, "unit": "%"},
      {"measurement": "inhibition at 900 g/ha", "setting": "[1]; Sorghum halepense, PPI application, 900 g/ha, read-out: Percent inhibition SORHA", "value": 100, "unit": "%"},
      {"measurement": "PPI activity GR80, SORHA", "setting": "[1]", "value": 100, "unit": "g/ha"},
      {"measurement": "Pre-emergence activity (GR80) ALOMY", "setting": "ALOMY (blackgrass)", "value": 100, "unit": "g/ha"},
      {"measurement": "inhibition at 10 g/ha", "setting": "soybean (GLYMX); Glycine max, 10 g/ha, read-out: Percent inhibition GLYMX", "value": 0, "unit": "%"},
      {"measurement": "inhibition at 30 g/ha", "setting": "soybean (GLYMX); Glycine max, 30 g/ha, read-out: Percent inhibition GLYMX", "value": 0, "unit": "%"},
      {"measurement": "inhibition at 100 g/ha", "setting": "soybean (GLYMX); Glycine max, 100 g/ha, read-out: Percent inhibition GLYMX", "value": 0, "unit": "%"},
      {"measurement": "inhibition at 300 g/ha", "setting": "soybean (GLYMX); Glycine max, 300 g/ha, read-out: Percent inhibition GLYMX", "value": 0, "unit": "%"},
      {"measurement": "inhibition at 900 g/ha", "setting": "soybean (GLYMX); Glycine max, 900 g/ha, read-out: Percent inhibition GLYMX", "value": 20, "unit": "%"},
      {"measurement": "Pre-emergence activity GR80, VERPE", "setting": "[2]", "value": 300, "unit": "g/ha"},
      {"measurement": "inhibition at 10 g/ha", "setting": "LOLMG (annual ryegrass); Lolium multiflorum, weed, PPI application, 10 g/ha, read-out: Percent inhibition LOLMG", "value": 30, "unit": "%"},
      {"measurement": "inhibition at 30 g/ha", "setting": "LOLMG (annual ryegrass); Lolium multiflorum, weed, PPI application, 30 g/ha, read-out: Percent inhibition LOLMG", "value": 70, "unit": "%"},
      {"measurement": "inhibition at 100 g/ha", "setting": "LOLMG (annual ryegrass); Lolium multiflorum, weed, PPI application, 100 g/ha, read-out: Percent inhibition LOLMG", "value": 100, "unit": "%"},
      {"measurement": "inhibition at 300 g/ha", "setting": "LOLMG (annual ryegrass); Lolium multiflorum, weed, PPI application, 300 g/ha, read-out: Percent inhibition LOLMG", "value": 100, "unit": "%"},
      {"measurement": "inhibition at 900 g/ha", "setting": "LOLMG (annual ryegrass); Lolium multiflorum, weed, PPI application, 900 g/ha, read-out: Percent inhibition LOLMG", "value": 100, "unit": "%"},
      {"measurement": "PPI activity GR80, LOLMG", "setting": "LOLMG (annual ryegrass)", "value": 300, "unit": "g/ha"},
      {"measurement": "inhibition at 30 g/ha", "setting": "DIGSA (large crabgrass); Digitaria sanguinalis, PPI application, 30 g/ha, read-out: Percent inhibition DIGSA", "value": 40, "unit": "%"},
      {"measurement": "inhibition at 100 g/ha", "setting": "DIGSA (large crabgrass); Digitaria sanguinalis, PPI application, 100 g/ha, read-out: Percent inhibition DIGSA", "value": 90, "unit": "%"},
      {"measurement": "inhibition at 300 g/ha", "setting": "DIGSA (large crabgrass); Digitaria sanguinalis, PPI application, 300 g/ha, read-out: Percent inhibition DIGSA", "value": 90, "unit": "%"},
      {"measurement": "inhibition at 900 g/ha", "setting": "DIGSA (large crabgrass); Digitaria sanguinalis, PPI application, 900 g/ha, read-out: Percent inhibition DIGSA", "value": 99, "unit": "%"},
      {"measurement": "PPI activity GR80, DIGSA", "setting": "DIGSA (large crabgrass)", "value": 30, "unit": "g/ha"}
    ]},
    {"smiles": "C=C(CC(F)(F)S(=O)(=O)c1ncn(C(=O)N(CC)CC)n1)C[Si](C)(C)C", "note": "[Example 20]", "values": [
      {"measurement": "Percent inhibition SORHA", "setting": "[1]; PPI application, 30 g/ha", "value": 0, "unit": "%"},
      {"measurement": "Percent inhibition SORHA", "setting": "[1]; PPI application, 100 g/ha", "value": 20, "unit": "%"},
      {"measurement": "Percent inhibition SORHA", "setting": "[1]; PPI application, 300 g/ha", "value": 80, "unit": "%"},
      {"measurement": "Percent inhibition SORHA", "setting": "[1]; PPI application, 900 g/ha", "value": 80, "unit": "%"},
      {"measurement": "PPI activity GR80, SORHA", "setting": "[1]", "value": 100, "unit": "g/ha"},
      {"measurement": "Pre-emergence activity (GR80) ALOMY", "setting": "ALOMY (blackgrass)", "value": 100, "unit": "g/ha"},
      {"measurement": "Percent inhibition GLYMX", "setting": "soybean (GLYMX); 10 g/ha", "value": 0, "unit": "%"},
      {"measurement": "Percent inhibition GLYMX", "setting": "soybean (GLYMX); 30 g/ha", "value": 0, "unit": "%"},
      {"measurement": "Percent inhibition GLYMX", "setting": "soybean (GLYMX); 100 g/ha", "value": 0, "unit": "%"},
      {"measurement": "Percent inhibition GLYMX", "setting": "soybean (GLYMX); 300 g/ha", "value": 0, "unit": "%"},
      {"measurement": "Percent inhibition GLYMX", "setting": "soybean (GLYMX); 900 g/ha", "value": 30, "unit": "%"},
      {"measurement": "Pre-emergence activity GR80, VERPE", "setting": "[2]", "value": "[empty]"},
      {"measurement": "PPI activity GR80, LOLMG", "setting": "LOLMG (annual ryegrass)", "value": "* (activity observed, at least at highest rate, but <80% inhibition)"},
      {"measurement": "Percent inhibition LOLMG", "setting": "LOLMG (annual ryegrass); weed, PPI application, 10 g/ha", "value": 0, "unit": "%"},
      {"measurement": "Percent inhibition LOLMG", "setting": "LOLMG (annual ryegrass); weed, PPI application, 30 g/ha", "value": 30, "unit": "%"},
      {"measurement": "Percent inhibition LOLMG", "setting": "LOLMG (annual ryegrass); weed, PPI application, 100 g/ha", "value": 60, "unit": "%"},
      {"measurement": "Percent inhibition LOLMG", "setting": "LOLMG (annual ryegrass); weed, PPI application, 300 g/ha", "value": 85, "unit": "%"},
      {"measurement": "Percent inhibition LOLMG", "setting": "LOLMG (annual ryegrass); weed, PPI application, 900 g/ha", "value": 75, "unit": "%"},
      {"measurement": "Percent inhibition DIGSA", "setting": "DIGSA (large crabgrass); PPI application, 10 g/ha", "value": 0, "unit": "%"},
      {"measurement": "Percent inhibition DIGSA", "setting": "DIGSA (large crabgrass); PPI application, 30 g/ha", "value": 80, "unit": "%"},
      {"measurement": "Percent inhibition DIGSA", "setting": "DIGSA (large crabgrass); PPI application, 100 g/ha", "value": 90, "unit": "%"},
      {"measurement": "Percent inhibition DIGSA", "setting": "DIGSA (large crabgrass); PPI application, 300 g/ha", "value": 100, "unit": "%"},
      {"measurement": "Percent inhibition DIGSA", "setting": "DIGSA (large crabgrass); PPI application, 900 g/ha", "value": 99, "unit": "%"},
      {"measurement": "PPI activity GR80, DIGSA", "setting": "DIGSA (large crabgrass)", "value": 100, "unit": "g/ha"}
    ]}
  ]
}
